Measurements published in US5916881A, “High trehalose content syrup” (Kabushiki Kaisha Hayashibara Seibutsu Kagaku Kenkyujo, priority 1996, dated 1999).

How the values were obtained:
[1] = Trehalose crystallization inhibitory effect of coexisting saccharides in a trehalose syrup over the water solubility (Experiment 2); type: physicochemical; conditions: trehalose dissolved in an amount over the water solubility; summary of Table 2
Procedure: Trehalose was dissolved by heating in water in an amount of 1.5-times the water solubility at 10° C., and the trehalose solution was allowed to stand at a relatively-cold place for checking the trehalose crystallization inhibitory effect by saccharides. […] With this relationship, testing solutions were prepared by dissolving by heating in 100 parts by weight of water in a respective glass beaker 83 parts by weight of trehalose, and a saccharide in an amount of 10% to the trehalose, i.e., 8.3 parts by weight of the saccharide selected from the group consisting of glucose, maltose, isomaltose, lactose, maltotriose, panose, maltotetraose, sorbitol, maltitol, maltotriitol, sucrose, raffinose, erlose, saccharides such as α-glucosyltrehalose or monoglucosyltrehalose, α-maltosyltrehalose or diglucosyltrehalose, and α-maltotriosyltrehalose or triglucosyltrehalose as disclosed in Japanese Patent Kokai No.143,876/95 by the present applicant; a saccharide such as α-isomaltosyl-α-glucoside or monoglucosyltrehalose as disclosed in Japanese Patent Kokai No.217,784/96 by the same applicant; and a saccharide such as α-maltosyl-α-maltoside or diglucosyltrehalose as disclosed in Japanese Patent Application No.167,486/94 by the same applicant. Each solution was allowed to stand in a thermostatic place kept at 5, 10 or 15° C. for one week, followed by macroscopically observing the presence of trehalose crystal for evaluating the trehalose crystallization inhibitory effect by the saccharides.

[2] = Influence of the concentrations of trehalose and of mono-/diglucosyltrehalose on trehalose crystallization (Experiment 3); type: physicochemical; set-up: key to Formation of trehalose crystal: "+" means that it crystallized; "-" means that it did not
Procedure: The trehalose crystallization inhibitory effect was experimented by dissolving trehalose under heating conditions in water in an amount of 1.5, 2.0, 2.5, 2.8 or 3.3-times the water solubility at 10° C., dissolving in the solution other oligosaccharides having a trehalose structure within their molecules in an amount of 10, 30 or 60% to the trehalose, d.s.b, and allowing the resultant solution to stand at a relatively-low temperature.
Based on the results in Experiment 1, 1.5, 2.0, 2.5, 2.8 and 3.3-times the water solubility of trehalose in 100 parts by weight of water at 10° C. water corresponded to 83, 111, 138, 155 and 182 parts by weight of trehalose anhydride, d.s.b., respectively With this relationship, testing solutions with the composition as shown in Table 3 were prepared by dissolving under heating conditions in a respective glass beaker 100 parts by weight of water, trehalose in a prescribed part by weight, and either monoglucosyltrehalose, i.e., α-glucosyltrehalose or diglucosyltrehalose, i.e., α-maltosyltrehalose in a prescribed ratio, allowing the solution to stand in a thermostatic place kept at 5, 10 or 15° C. for checking the trehalose crystallization inhibitory effect.

In the case of `OC[C@H]1O[C@H](O[C@H]2O[C@H](CO)[C@@H](O[C@H]3O[C@H](CO)[C@@H](O)[C@H](O)[C@H]3O)[C@H](O)[C@H]2O)[C@H](O)[C@@H](O)[C@@H]1O` [α-Glycosyltrehalose, α-glucosyltrehalose], the “Trehalose crystallization inhibitory effect (in words)” value [1] is reported as “specifically and effectively inhibited”, the “Trehalose crystallization inhibitory effect (in words)” value ([2]; summary of Table 3) is reported as “satisfactory trehalose crystallization inhibitory effect” and the “Formation of trehalose crystal” value ([2]; water 100, trehalose 83, coexisting saccharide 8.3 parts by weight, 5° C. (1.7-times solubility)) is reported as “-”. The “Formation of trehalose crystal” value ([2]; water 100, trehalose 83, coexisting saccharide 8.3 parts by weight, 10° C. (1.5-times solubility)) was “-”, the “Formation of trehalose crystal” value ([2]; water 100, trehalose 83, coexisting saccharide 8.3 parts by weight, 15° C. (1.3-times solubility)) was “-” and the “Formation of trehalose crystal” value ([2]; water 100, trehalose 83, coexisting saccharide 25 parts by weight, 5° C. (1.7-times solubility)) was “-”. For the same compound, the “Formation of trehalose crystal” value ([2]; water 100, trehalose 83, coexisting saccharide 25 parts by weight, 10° C. (1.5-times solubility)) was “-”, the “Formation of trehalose crystal” value ([2]; water 100, trehalose 83, coexisting saccharide 25 parts by weight, 15° C. (1.3-times solubility)) was “-” and the “Formation of trehalose crystal” value ([2]; water 100, trehalose 83, coexisting saccharide 50 parts by weight, 5° C. (1.7-times solubility)) was “-”. The “Formation of trehalose crystal” value ([2]; water 100, trehalose 83, coexisting saccharide 50 parts by weight, 10° C. (1.5-times solubility)) was “-”, the “Formation of trehalose crystal” value ([2]; water 100, trehalose 83, coexisting saccharide 50 parts by weight, 15° C. (1.3-times solubility)) was “-” and the “Formation of trehalose crystal” value ([2]; water 100, trehalose 111, coexisting saccharide 11 parts by weight, 5° C. (2.2-times solubility)) was “+”. For the same compound, the “Formation of trehalose crystal” value ([2]; water 100, trehalose 111, coexisting saccharide 11 parts by weight, 10° C. (2.0-times solubility)) was “-”, the “Formation of trehalose crystal” value ([2]; water 100, trehalose 111, coexisting saccharide 11 parts by weight, 15° C. (1.8-times solubility)) was “-” and the “Formation of trehalose crystal” value ([2]; water 100, trehalose 111, coexisting saccharide 33 parts by weight, 5° C. (2.2-times solubility)) was “-”. For the same compound, the “Formation of trehalose crystal” value ([2]; water 100, trehalose 111, coexisting saccharide 33 parts by weight, 10° C. (2.0-times solubility)) was “-”, the “Formation of trehalose crystal” value ([2]; water 100, trehalose 111, coexisting saccharide 33 parts by weight, 15° C. (1.8-times solubility)) was “-” and the “Formation of trehalose crystal” value ([2]; water 100, trehalose 111, coexisting saccharide 66 parts by weight, 5° C. (2.2-times solubility)) was “-”. The “Formation of trehalose crystal” value ([2]; water 100, trehalose 111, coexisting saccharide 66 parts by weight, 10° C. (2.0-times solubility)) was “-”, the “Formation of trehalose crystal” value ([2]; water 100, trehalose 111, coexisting saccharide 66 parts by weight, 15° C. (1.8-times solubility)) was “-” and the “Formation of trehalose crystal” value ([2]; water 100, trehalose 138, coexisting saccharide 14 parts by weight, 5° C. (2.8-times solubility)) was “+”. For the same compound, the “Formation of trehalose crystal” value ([2]; water 100, trehalose 138, coexisting saccharide 14 parts by weight, 10° C. (2.5-times solubility)) was “+”, the “Formation of trehalose crystal” value ([2]; water 100, trehalose 138, coexisting saccharide 14 parts by weight, 15° C. (2.2-times solubility)) was “-” and the “Formation of trehalose crystal” value ([2]; water 100, trehalose 138, coexisting saccharide 42 parts by weight, 5° C. (2.8-times solubility)) was “+”. For the same compound, the “Formation of trehalose crystal” value ([2]; water 100, trehalose 138, coexisting saccharide 42 parts by weight, 10° C. (2.5-times solubility)) was “+”, the “Formation of trehalose crystal” value ([2]; water 100, trehalose 138, coexisting saccharide 42 parts by weight, 15° C. (2.2-times solubility)) was “-” and the “Formation of trehalose crystal” value ([2]; water 100, trehalose 138, coexisting saccharide 83 parts by weight, 5° C. (2.8-times solubility)) was “+”. The “Formation of trehalose crystal” value ([2]; water 100, trehalose 138, coexisting saccharide 83 parts by weight, 10° C. (2.5-times solubility)) was “+”, the “Formation of trehalose crystal” value ([2]; water 100, trehalose 138, coexisting saccharide 83 parts by weight, 15° C. (2.2-times solubility)) was “-” and the “Formation of trehalose crystal” value ([2]; water 100, trehalose 155, coexisting saccharide 16 parts by weight, 5° C. (3.1-times solubility)) was “+”. For the same compound, the “Formation of trehalose crystal” value ([2]; water 100, trehalose 155, coexisting saccharide 16 parts by weight, 10° C. (2.8-times solubility)) was “+”, the “Formation of trehalose crystal” value ([2]; water 100, trehalose 155, coexisting saccharide 16 parts by weight, 15° C. (2.5-times solubility)) was “+” and the “Formation of trehalose crystal” value ([2]; water 100, trehalose 155, coexisting saccharide 46 parts by weight, 5° C. (3.1-times solubility)) was “+”. For the same compound, the “Formation of trehalose crystal” value ([2]; water 100, trehalose 155, coexisting saccharide 46 parts by weight, 10° C. (2.8-times solubility)) was “+”, the “Formation of trehalose crystal” value ([2]; water 100, trehalose 155, coexisting saccharide 46 parts by weight, 15° C. (2.5-times solubility)) was “+” and the “Formation of trehalose crystal” value ([2]; water 100, trehalose 155, coexisting saccharide 93 parts by weight, 5° C. (3.1-times solubility)) was “+”. For the same compound, the “Formation of trehalose crystal” value ([2]; water 100, trehalose 155, coexisting saccharide 93 parts by weight, 10° C. (2.8-times solubility)) was “+”, the “Formation of trehalose crystal” value ([2]; water 100, trehalose 155, coexisting saccharide 93 parts by weight, 15° C. (2.5-times solubility)) was “+” and the “Formation of trehalose crystal” value ([2]; water 100, trehalose 182, coexisting saccharide 18 parts by weight, 5° C. (3.7-times solubility)) was “+”. For the same compound, the “Formation of trehalose crystal” value ([2]; water 100, trehalose 182, coexisting saccharide 18 parts by weight, 10° C. (3.3-times solubility)) was “+”, the “Formation of trehalose crystal” value ([2]; water 100, trehalose 182, coexisting saccharide 18 parts by weight, 15° C. (3.0-times solubility)) was “+” and the “Formation of trehalose crystal” value ([2]; water 100, trehalose 182, coexisting saccharide 55 parts by weight, 5° C. (3.7-times solubility)) was “+”. For the same compound, the “Formation of trehalose crystal” value ([2]; water 100, trehalose 182, coexisting saccharide 55 parts by weight, 10° C. (3.3-times solubility)) was “+”, the “Formation of trehalose crystal” value ([2]; water 100, trehalose 182, coexisting saccharide 55 parts by weight, 15° C. (3.0-times solubility)) was “+” and the “Formation of trehalose crystal” value ([2]; water 100, trehalose 182, coexisting saccharide 110 parts by weight, 5° C. (3.7-times solubility)) was “+”. For the same compound, the “Formation of trehalose crystal” value ([2]; water 100, trehalose 182, coexisting saccharide 110 parts by weight, 10° C. (3.3-times solubility)) was “+” and the “Formation of trehalose crystal” value ([2]; water 100, trehalose 182, coexisting saccharide 110 parts by weight, 15° C. (3.0-times solubility)) was “+”.
